Test results taken from patent publication US6727253B2, “Treatment of accidental extravasation of anthracyclines” (Antianthra APS, priority 1999, dated 2004).
Read-outs that look alike come from different tables or passages of the source.

How the values were obtained:
[1] = system: wound after doxorubicin SC in swine; experiment: Pilot study on swine, doxorubicin SC; format: in vivo; conditions: 3 mg doxorubicin SC, not receiving ICRF-187
Protocol: (§1) A danish porker weighting approximately 30 kg was used. The animals were fully anesthesized and artificially ventilated during SC injection of 1 ml of anthracycline.

[2] = system: SC daunorubicin induced wounds in mice; conditions: for AUC / DW / FW / TTW: Table A, pooled data
Protocol: The mice were euthanized after healing of all wounds.
The effect of various doses of ICRF-187 was investigated in Example 3.
Comparison of two concentrations of sc daunorubicin were compared with and without simultaneous treatment with ICRF-187 250 mg/kg.
ICRF-187 was administered at the same time as daunorubicin, 3 hours after, and 6 hours after, respectively. Saline served as control. The dose of daunorubicin was 3 mg/kg so and ICRF-187 was administered IP in a 250 mg/kg solution. Twenty-eight mice were used. The results are depicted in data sheet #6 and the mean AUCs are shown graphically in FIG. 5.
100 mg/kg ICRF-187 was injected into the subcutaneous papule produced by injected daunorubicin. This treatment was compared to intralesional saline control, IP saline control, and IP treatment with ICRF-187.
[…]. Seven experiments (n=6, 7, 7, 9, 9, 9, and 9) with 3 mg/kg daunorubicin SC plus saline IP at t=0 and seven experiments (n=6, 7, 7, 9, 9, 8, and 9) with 3 mg/kg daunorubicin SC plus 250 mg/kg ICRF-187 IP at t=0tin two experiments (n=9 and 4) the ICRF-187 doses were 62,5 mg/kg and 375 mg/kg IP, respectively, in two (n=7 and 9) the dose was 125 mg/kg. ICRF-187 250 mg/kg was administered IV in one (n=9).

[3] = system: wound after daunorubicin SC in swine; experiment: Pilot study on swine, daunorubicin SC; format: in vivo; conditions: 1 ml daunorubicin SC, untreated
Protocol: as §1

[4] = Example 3, daunorubicin 3 mg/kg sc + saline IP
[5] = Example 4, daunorubicin 1 mg/kg sc + saline IP
[6] = Example 4, daunorubicin 3 mg/kg sc + saline IP
[7] = Example 5, daunorubicin 1 mg/kg sc + saline IP
[8] = Example 5, daunorubicin 3 mg/kg sc + saline IP
[9] = Example 6, daunorubicin 3 mg/kg sc + saline IP
[10] = Example 7, daunorubicin 3 mg/kg sc + 0.05 ml saline IL
[11] = Example 7, daunorubicin 3 mg/kg sc + saline IP
[12] = daunorubicin 1 mg/kg SC + saline IP
[13] = daunorubicin 3 mg/kg SC + saline IP
[14] = daunorubicin 3 mg/kg SC + saline IP, listed as daunorubicin

How did the wound appearance [1] turn out when `COc1cccc2c1C(=O)c1c(O)c3c(c(O)c1C2=O)C[C@@](O)(C(=O)CO)C[C@@H]3O[C@H]1C[C@H](N)[C@H](O)[C@H](C)O1` [Doxorubicin] was run?
The wound appearance was “a wound appeared”.

Which “Mean AUC” value [2, 4] does the source give for `COc1cccc2c1C(=O)c1c(O)c3c(c(O)c1C2=O)C[C@@](O)(C(C)=O)C[C@@H]3O[C@H]1C[C@H](N)[C@H](O)[C@H](C)O1` [Daunorubicin] here?
The value was 764 mm^2 × days.

And the “Mean DWw ± SEM” value [2, 4]?
Its value is 29.8 ± 0.5 days.

What about the “Mean TTWw ± SEM” value [2, 4] of the same molecule?
Its value is 4.8 ± 0.4 days.

And the “Mean AUC” value [2, 5]?
Its value is 365 mm^2 × days.

And the “Mean DWw ± SEM” value [2, 5]?
Its value is 25.5 ± 1.1 days.

What about the “Mean TTWw ± SEM” value [2, 5] of the same molecule?
The value was 7.3 ± 1.6 days.

What about the “Mean AUC” value [2, 6] of the same molecule?
The value was 1240 mm^2 × days.

What about the “Mean DWw ± SEM” value [2, 6] of the same molecule?
Its value is 29.0 ± 0.9 days.

What about the “Mean TTWw ± SEM” value [2, 6] of the same molecule?
Its value is 4.8 ± 0.3 days.

What about the “Mean AUC” value [2, 7] of the same molecule?
The value was 184 mm^2 × days.

What about the “Mean DWw ± SEM” value [2, 7] of the same molecule?
The value was 20.5 ± 1.3 days.

What about the “Mean TTWw ± SEM” value [2, 7] of the same molecule?
The value was 8.5 ± 0.7 days.

What about the “Mean AUC” value [2, 8] of the same molecule?
The value was 955 mm^2 × days.

And the “Mean DWw ± SEM” value [2, 8]?
Its value is 25.7 ± 0.7 days.

What about the “Mean TTWw ± SEM” value [2, 8] of the same molecule?
The value was 5.1 ± 0.2 days.

What about the “Mean AUC” value [2, 9] of the same molecule?
Its value is 1398 mm^2 × days.

What about the “Mean DWw ± SEM” value [2, 9] of the same molecule?
Its value is 27.4 ± 0.5 days.

And the “Mean TTWw ± SEM” value [2, 9]?
Its value is 5.0 ± 0.4 days.

And the “Mean AUC” value [2, 10]?
The value was 1290 mm^2 × days.

What about the “Mean DWw ± SEM” value [2, 10] of the same molecule?
The value was 24.4 ± 0.6 days.

And the “Mean TTWw ± SEM” value [2, 10]?
Its value is 6.2 ± 0.3 days.

And the “Mean AUC” value [2, 11]?
Its value is 1144 mm^2 × days.

What about the “Mean DWw ± SEM” value [2, 11] of the same molecule?
Its value is 26.9 ± 0.7 days.

What about the “Mean TTWw ± SEM” value [2, 11] of the same molecule?
Its value is 6.0 ± 0.3 days.

What about the AUC [2, 12] of the same molecule?
Its AUC is 263 (± 56) mm^2×days.

What about the DW [2, 12] of the same molecule?
Its DW is 22.6 (± 1.1) days.

And the FW [2, 12]?
The FW was 88%.

What about the TTW [2, 12] of the same molecule?
Its TTW is 6.9 (± 0.7) days.

And the AUC [2, 13]?
The AUC was 1260 (± 72) mm^2×days.

What about the DW [2, 13] of the same molecule?
Its DW is 26.6 (± 0.3) days.

And the FW [2, 13]?
Its FW is 96%.

What about the TTW [2, 13] of the same molecule?
Its TTW is 5.5 (± 0.2) days.

And the DW [2, 14]?
The DW was 26.6 days.

And the TTW [2, 14]?
The TTW was 5.5 days.

What about the wound appearance [3] of the same molecule?
Its wound appearance is “a large wound appeared”.
